In patent US20120190752A1, “EXO-S-MECAMYLAMINE METHOD, USE, AND COMPOUND FOR TREATMENT” (Targacept Inc., priority 2009, published 2012):

System: subjects with major depressive disorder (MDD) who were inadequate responders to citalopram
Test: HAMD-17 total score, Phase 2b trial of TC-5214 as add-on to citalopram
Type: in vivo, human
Conditions: for HAMD-17 total score, observed Mean / HAMD-17 total score, observed Median / HAMD-17 Remission (Score ≦7): Subjects with Remission (number) / HAMD-17 Remission (Score ≦7): Subjects with Remission (percentage) / HAMD-17 Remission (Score ≦7): Subjects without Remission (number) / HAMD-17 Remission (Score ≦7): Subjects without Remission (percentage) / HAMD-17 Remission (Score ≦10): Subjects with Remission (number) / HAMD-17 Remission (Score ≦10): Subjects with Remission (percentage) / HAMD-17 Remission (Score ≦10): Subjects without Remission (number) / HAMD-17 Remission (Score ≦10): Subjects without Remission (percentage) / HAMD-17 reduction from baseline ≧50%: Subjects with Response (number) / HAMD-17 reduction from baseline ≧50%: Subjects with Response (percentage) / HAMD-17 reduction from baseline ≧50%: Subjects without Response (number) / HAMD-17 reduction from baseline ≧50%: Subjects without Response (percentage) / HAMD-17 Adjusted Mean change / HAMD-17 Mean Difference between TC-5214 and Placebo: PP; for primary outcome: mean change between TC-5214 and placebo from baseline on HAM-D (HAMD-17 total score): intent to treat, Week 8 to Week 16 LOCF, result in words
Description: The Hamilton Rating Scale for Depression (HRSD), also known as the Hamilton Depression Rating Scale (HDRS) or abbreviated to HAM-D or HAMD, is a multiple choice questionnaire that clinicians may use to rate the severity of a patient's major depression (Hamilton 1967). The questionnaire rates the severity of symptoms observed in depression such as low mood, insomnia, agitation, anxiety and weight loss. The questionnaire is presently one of the most commonly used scales for rating depression in medical research. The clinician chooses the possible responses to each question by interviewing the patient and by observing the patient's symptoms. Each question has multiple possible responses which increase in severity. Although Hamilton's original scale had 17 questions, others later developed HRSD scales with different numbers of questions, the greatest of which is 29 (HRSD-29). Clinicians can use the HRSD in place of, or in conjunction with, the Montgomery-Åsberg Depression Rating Scale (MADRS), the Beck Depression Inventory (BDI), the Zung Self-Rating Depression Scale, the Wechsler Depression Rating Scale, the […] Depression Rating Scale, the Inventory of Depressive Symptomatology (IDS), the Quick Inventory of Depressive Symptomatology (QIDS), and other questionnaires. […] The results on all of the trial's secondary efficacy measures, including assessments of depression, irritability, disability, cognition, severity of illness and global improvement, were also statistically significant in favor of TC-5214 on an intent to treat basis. The Phase 2b trial of TC-5214 as an augmentation treatment for MDD was a two-phase trial conducted at 20 sites in India and three sites in the United States. In the first phase, 579 subjects with MDD received first-line treatment with citalopram hydrobromide for eight weeks, 20 mg daily for the first four weeks and 40 mg daily for the next four weeks. Citalopram, an approved treatment for MDD marketed in the United States as […]®, is from the drug class known as selective serotonin reuptake inhibitors. At the end of the eight weeks, subjects whose MADRS score had improved less than 50 percent and whose CGI-SI score was no lower than 4 were considered partial or non responders and randomized into the double blind second phase of the trial. In the double blind second phase, subjects continued their citalopram treatment and also received either add-on TC-5214 or add-on placebo for an additional eight weeks. The daily dosage of TC-5214 was initially 2 mg and could be increased at the discretion of the investigator to 4 mg and to 8 mg based on tolerability and therapeutic response. The primary outcome measure for the trial was mean change between TC-5214 and placebo from double blind baseline as measured by HAM-D at week 16. The intent to treat dataset included 265 subjects in the second phase. In more detail, a multi-center double-blind, randomized, placebo-controlled, parallel group, flexible dose titration study of TC-5214 as adjunctive therapy in subjects with major depressive disorder (MDD) who were inadequate responders to citalopram was conducted in centers in the US and India. The study consisted of a screening period, baseline/washout period, open-label phase, double-blind phase, and a follow-up visit. Subject participation in the study could continue for up to 16 weeks of treatment. Following a washout period of up to 28 days for other antidepressants, subjects with MDD and a MADRS total score >/=28 and a Clinical Global Impression-Severity (CGI-S) score >/=4 were enrolled on Day 1 into an open-label citalopram-only phase of the study. This phase lasted 8 weeks, with citalopram (CIT) dose increased from a once-daily dose of 20 mg (Day 1 through Week 4) to 40 mg (Week 4 through Week 8). A total of 579 subjects entered the open-label citalopram phase. […]

[1] = Double Blind Week 8 (Baseline), before TC-5214
[2] = Double Blind Week 16 LOCF (change from Week 8)
[3] = Double Blind Week 18 (Follow-up)
[4] = Double Blind Week 18 LOCF (Follow-up)
[5] = Double Blind Week 18 LOCF (Follow-up), change from Week 16

Compound: CNC1(C)C2CCC(C2)C1(C)C (stereo in doubt) [TC-5214, (S)—N,2,3,3-tetramethylnorbornan-2-amine]
- HAMD-17 Adj. Mean change (ITT, change from Week 8 (double-blind baseline) to Week 16 LOCF, add-on to citalopram): −13.75
- onset of separation from placebo, remission rates HAMD≦7 (FIG. 1) (ITT, week of double-blind treatment): ≤ 2 week
- HAMD-17 total score, observed Mean [1]: 23.7
- HAMD-17 total score, observed Median [1]: 24.0
- HAMD-17 Remission (Score ≦7): Subjects with Remission (number) (Double Blind Week 9): 1
- HAMD-17 Remission (Score ≦7): Subjects with Remission (percentage) (Double Blind Week 9): (1%)
- HAMD-17 Remission (Score ≦7): Subjects without Remission (number) (Double Blind Week 9): 112
- HAMD-17 Remission (Score ≦7): Subjects without Remission (percentage) (Double Blind Week 9): (99%)
- HAMD-17 Remission (Score ≦10): Subjects with Remission (number) (Double Blind Week 9): 3
- HAMD-17 Remission (Score ≦10): Subjects with Remission (percentage) (Double Blind Week 9): (3%)
- HAMD-17 Remission (Score ≦10): Subjects without Remission (number) (Double Blind Week 9): 110
- HAMD-17 Remission (Score ≦10): Subjects without Remission (percentage) (Double Blind Week 9): (97%)
- HAMD-17 reduction from baseline ≧50%: Subjects with Response (number) (Double Blind Week 9): 3
- HAMD-17 reduction from baseline ≧50%: Subjects with Response (percentage) (Double Blind Week 9): (3%)
- HAMD-17 reduction from baseline ≧50%: Subjects without Response (number) (Double Blind Week 9): 110
- HAMD-17 reduction from baseline ≧50%: Subjects without Response (percentage) (Double Blind Week 9): (97%)
- HAMD-17 Remission (Score ≦7): Subjects with Remission (number) (Double Blind Week 10): 4
- HAMD-17 Remission (Score ≦7): Subjects with Remission (percentage) (Double Blind Week 10): (4%)
- HAMD-17 Remission (Score ≦7): Subjects without Remission (number) (Double Blind Week 10): 109
- HAMD-17 Remission (Score ≦7): Subjects without Remission (percentage) (Double Blind Week 10): (96%)
- HAMD-17 Remission (Score ≦10): Subjects with Remission (number) (Double Blind Week 10): 16
- HAMD-17 Remission (Score ≦10): Subjects with Remission (percentage) (Double Blind Week 10): (14%)
- HAMD-17 Remission (Score ≦10): Subjects without Remission (number) (Double Blind Week 10): 97
- HAMD-17 Remission (Score ≦10): Subjects without Remission (percentage) (Double Blind Week 10): (86%)
- HAMD-17 reduction from baseline ≧50%: Subjects with Response (number) (Double Blind Week 10): 20
- HAMD-17 reduction from baseline ≧50%: Subjects with Response (percentage) (Double Blind Week 10): (18%)
- HAMD-17 reduction from baseline ≧50%: Subjects without Response (number) (Double Blind Week 10): 93
- HAMD-17 reduction from baseline ≧50%: Subjects without Response (percentage) (Double Blind Week 10): (82%)
- HAMD-17 Remission (Score ≦7): Subjects with Remission (number) (Double Blind Week 12): 16
- HAMD-17 Remission (Score ≦7): Subjects with Remission (percentage) (Double Blind Week 12): (14%)
- HAMD-17 Remission (Score ≦7): Subjects without Remission (number) (Double Blind Week 12): 97
- HAMD-17 Remission (Score ≦7): Subjects without Remission (percentage) (Double Blind Week 12): (86%)
- HAMD-17 Remission (Score ≦10): Subjects with Remission (number) (Double Blind Week 12): 36
- HAMD-17 Remission (Score ≦10): Subjects with Remission (percentage) (Double Blind Week 12): (32%)
- HAMD-17 Remission (Score ≦10): Subjects without Remission (number) (Double Blind Week 12): 77
- HAMD-17 Remission (Score ≦10): Subjects without Remission (percentage) (Double Blind Week 12): (68%)
- HAMD-17 reduction from baseline ≧50%: Subjects with Response (number) (Double Blind Week 12): 40
- HAMD-17 reduction from baseline ≧50%: Subjects with Response (percentage) (Double Blind Week 12): (35%)
- HAMD-17 reduction from baseline ≧50%: Subjects without Response (number) (Double Blind Week 12): 73
- HAMD-17 reduction from baseline ≧50%: Subjects without Response (percentage) (Double Blind Week 12): (65%)
- HAMD-17 Remission (Score ≦7): Subjects with Remission (number) (Double Blind Week 14): 35
- HAMD-17 Remission (Score ≦7): Subjects with Remission (percentage) (Double Blind Week 14): (31%)
- HAMD-17 Remission (Score ≦7): Subjects without Remission (number) (Double Blind Week 14): 78
- HAMD-17 Remission (Score ≦7): Subjects without Remission (percentage) (Double Blind Week 14): (69%)
- HAMD-17 Remission (Score ≦10): Subjects with Remission (number) (Double Blind Week 14): 53
- HAMD-17 Remission (Score ≦10): Subjects with Remission (percentage) (Double Blind Week 14): (47%)
- HAMD-17 Remission (Score ≦10): Subjects without Remission (number) (Double Blind Week 14): 60
- HAMD-17 Remission (Score ≦10): Subjects without Remission (percentage) (Double Blind Week 14): (53%)
- HAMD-17 reduction from baseline ≧50%: Subjects with Response (number) (Double Blind Week 14): 67
- HAMD-17 reduction from baseline ≧50%: Subjects with Response (percentage) (Double Blind Week 14): (59%)
- HAMD-17 reduction from baseline ≧50%: Subjects without Response (number) (Double Blind Week 14): 46
- HAMD-17 reduction from baseline ≧50%: Subjects without Response (percentage) (Double Blind Week 14): (41%)
- HAMD-17 Remission (Score ≦7): Subjects with Remission (number) (Double Blind Week 16): 50
- HAMD-17 Remission (Score ≦7): Subjects with Remission (percentage) (Double Blind Week 16): (44%)
- HAMD-17 Remission (Score ≦7): Subjects without Remission (number) (Double Blind Week 16): 63
- HAMD-17 Remission (Score ≦7): Subjects without Remission (percentage) (Double Blind Week 16): (56%)
- HAMD-17 Remission (Score ≦10): Subjects with Remission (number) (Double Blind Week 16): 75
- HAMD-17 Remission (Score ≦10): Subjects with Remission (percentage) (Double Blind Week 16): (66%)
- HAMD-17 Remission (Score ≦10): Subjects without Remission (number) (Double Blind Week 16): 38
- HAMD-17 Remission (Score ≦10): Subjects without Remission (percentage) (Double Blind Week 16): (34%)
- HAMD-17 reduction from baseline ≧50%: Subjects with Response (number) (Double Blind Week 16): 84
- HAMD-17 reduction from baseline ≧50%: Subjects with Response (percentage) (Double Blind Week 16): (74%)
- HAMD-17 reduction from baseline ≧50%: Subjects without Response (number) (Double Blind Week 16): 29
- HAMD-17 reduction from baseline ≧50%: Subjects without Response (percentage) (Double Blind Week 16): (26%)
- HAMD-17 total score, observed Mean (Double Blind Week 16 LOCF): 9.1
- HAMD-17 total score, observed Median (Double Blind Week 16 LOCF): 8.0
- HAMD-17 Adjusted Mean change [2]: −14.64
- HAMD-17 Mean Difference between TC-5214 and Placebo [2]: 6.10
- HAMD-17 Remission (Score ≦7): Subjects with Remission (number) [3]: 58
- HAMD-17 Remission (Score ≦7): Subjects with Remission (percentage) [3]: (51%)
- HAMD-17 Remission (Score ≦7): Subjects without Remission (number) [3]: 55
- HAMD-17 Remission (Score ≦7): Subjects without Remission (percentage) [3]: (49%)
- HAMD-17 Remission (Score ≦10): Subjects with Remission (number) [3]: 77
- HAMD-17 Remission (Score ≦10): Subjects with Remission (percentage) [3]: (68%)
- HAMD-17 Remission (Score ≦10): Subjects without Remission (number) [3]: 36
- HAMD-17 Remission (Score ≦10): Subjects without Remission (percentage) [3]: (32%)
- HAMD-17 reduction from baseline ≧50%: Subjects with Response (number) [3]: 83
- HAMD-17 reduction from baseline ≧50%: Subjects with Response (percentage) [3]: (73%)
- HAMD-17 reduction from baseline ≧50%: Subjects without Response (number) [3]: 30
- HAMD-17 reduction from baseline ≧50%: Subjects without Response (percentage) [3]: (27%)
- HAMD-17 total score, observed Mean [4]: 8.6
- HAMD-17 total score, observed Median [4]: 7.0
- HAMD-17 Adjusted Mean change [5]: −0.83
- HAMD-17 Mean Difference between TC-5214 and Placebo [5]: −0.01
- primary outcome: mean change between TC-5214 and placebo from baseline on HAM-D (HAMD-17 total score): highly statistically significant in favor of TC-5214
- primary outcome: mean change between TC-5214 and placebo from baseline on HAM-D (HAMD-17 total score) (listed as TC-5214-23): statistically significant favoring TC-5214-23
